Target: T1, calcium channel (Oryctolagus cuniculus, UniProt P15381)
T1 construct: from tissue; host or cells: rabbit heart membrane preparation
Assay: Assay for Inhibition of Nitrendipine Binding (3H-nitrendipine, heart membranes)
Settings: 3H-nitrendipine displacement, rabbit heart membranes; Tables 1-5
Procedure: Female, New Zealand white rabbits (1-2 kg) are sacrificed by cervical dislocation, and the heart is immediately removed, cleaned and chopped into small pieces. The tissue is homogenized in 5× times volume of 0.05M Hepes buffer, pH 7.4. The homogenate is centrifuged at 4000 g for 10 minutes, and the supernatant is re-centrifuged at 42,000×g for 90 minutes. The resulting membrane pellet is resuspended (0.7 ml/g weight) in 0.05M Hepes, pH 7.4 and stored at […] until used. Each tube of the binding assay contains ^3H-nitrendipine (0.05-0.50 nM), buffer, membranes (0.10 ml), and test compound in a total volume of 1.0 ml. After 90 minutes at 4° C., the bound nitrendipine is separated from the unbound by filtration on Whatman GF/C filters. After rinsing, the filters are dried and counted in a liquid scintillation counter.
Non-specific binding of ^3H-nitrendipine (that amount bound in the presence of excess unlabelled nitrendipine) is subtracted from the total bound to obtain specifically bound radiolabeled nitrendipine. The amount of specifically bound nitrendipine in the presence of a test compound is compared to that amount bound in the absence of a compound. A percent displacement (or inhibition) can then be calculated.

T1 sequence (P15381 whole entry, other chains not shown): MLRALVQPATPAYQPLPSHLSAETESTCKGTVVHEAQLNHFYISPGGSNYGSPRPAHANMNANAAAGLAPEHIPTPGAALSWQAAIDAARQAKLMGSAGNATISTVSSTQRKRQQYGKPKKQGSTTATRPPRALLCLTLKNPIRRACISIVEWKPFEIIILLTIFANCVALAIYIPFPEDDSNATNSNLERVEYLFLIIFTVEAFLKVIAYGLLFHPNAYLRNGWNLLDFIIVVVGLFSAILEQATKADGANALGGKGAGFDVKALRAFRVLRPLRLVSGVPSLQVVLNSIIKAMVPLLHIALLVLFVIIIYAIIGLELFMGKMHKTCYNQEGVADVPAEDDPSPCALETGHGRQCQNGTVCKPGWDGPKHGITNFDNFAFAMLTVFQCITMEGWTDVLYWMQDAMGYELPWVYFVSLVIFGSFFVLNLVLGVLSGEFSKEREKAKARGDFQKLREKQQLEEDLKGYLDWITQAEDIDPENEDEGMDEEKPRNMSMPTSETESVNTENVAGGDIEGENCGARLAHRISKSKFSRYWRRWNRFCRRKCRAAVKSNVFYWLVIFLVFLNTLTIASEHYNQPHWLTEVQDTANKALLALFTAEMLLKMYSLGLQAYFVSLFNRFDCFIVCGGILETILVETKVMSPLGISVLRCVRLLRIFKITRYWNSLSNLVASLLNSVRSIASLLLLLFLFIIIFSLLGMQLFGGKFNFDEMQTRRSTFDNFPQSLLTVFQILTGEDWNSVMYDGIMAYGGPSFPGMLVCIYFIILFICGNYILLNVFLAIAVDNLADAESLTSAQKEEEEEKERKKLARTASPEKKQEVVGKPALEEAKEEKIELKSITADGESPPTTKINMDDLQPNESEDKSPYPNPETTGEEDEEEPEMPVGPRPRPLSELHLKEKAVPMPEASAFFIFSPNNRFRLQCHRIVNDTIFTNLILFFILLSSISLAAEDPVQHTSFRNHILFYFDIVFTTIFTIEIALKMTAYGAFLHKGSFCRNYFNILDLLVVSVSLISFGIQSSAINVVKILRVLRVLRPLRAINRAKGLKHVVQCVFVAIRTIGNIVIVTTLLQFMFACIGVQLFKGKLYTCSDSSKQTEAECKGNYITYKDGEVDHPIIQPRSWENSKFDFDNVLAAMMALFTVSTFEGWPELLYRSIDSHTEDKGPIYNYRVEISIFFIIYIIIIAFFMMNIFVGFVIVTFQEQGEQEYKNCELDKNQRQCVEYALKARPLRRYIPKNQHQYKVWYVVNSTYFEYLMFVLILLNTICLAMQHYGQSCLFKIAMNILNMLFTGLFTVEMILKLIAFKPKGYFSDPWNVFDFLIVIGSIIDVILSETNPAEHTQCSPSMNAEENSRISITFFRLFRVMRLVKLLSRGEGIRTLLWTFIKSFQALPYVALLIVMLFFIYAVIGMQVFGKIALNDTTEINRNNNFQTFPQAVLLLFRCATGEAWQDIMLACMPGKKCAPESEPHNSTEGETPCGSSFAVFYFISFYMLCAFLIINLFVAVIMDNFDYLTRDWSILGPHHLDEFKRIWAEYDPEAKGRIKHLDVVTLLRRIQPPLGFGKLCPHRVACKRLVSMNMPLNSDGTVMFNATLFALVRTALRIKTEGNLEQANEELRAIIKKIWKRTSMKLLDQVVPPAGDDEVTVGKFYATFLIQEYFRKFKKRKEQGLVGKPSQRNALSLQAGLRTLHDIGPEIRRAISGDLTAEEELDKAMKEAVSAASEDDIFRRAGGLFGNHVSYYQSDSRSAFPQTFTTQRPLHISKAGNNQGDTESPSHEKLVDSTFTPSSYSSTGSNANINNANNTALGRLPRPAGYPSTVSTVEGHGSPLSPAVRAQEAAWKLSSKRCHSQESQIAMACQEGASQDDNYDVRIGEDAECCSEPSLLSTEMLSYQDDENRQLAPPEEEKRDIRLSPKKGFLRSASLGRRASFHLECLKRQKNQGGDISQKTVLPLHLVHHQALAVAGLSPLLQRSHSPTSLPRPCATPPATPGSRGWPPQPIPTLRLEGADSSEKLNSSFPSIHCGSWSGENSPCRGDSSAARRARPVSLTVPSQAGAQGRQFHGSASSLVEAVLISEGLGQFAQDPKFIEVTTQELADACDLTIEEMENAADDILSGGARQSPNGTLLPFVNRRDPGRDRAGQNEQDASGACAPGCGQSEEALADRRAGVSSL
T1 sequence (P13806 27-960 partner limits assumed, other chains not shown): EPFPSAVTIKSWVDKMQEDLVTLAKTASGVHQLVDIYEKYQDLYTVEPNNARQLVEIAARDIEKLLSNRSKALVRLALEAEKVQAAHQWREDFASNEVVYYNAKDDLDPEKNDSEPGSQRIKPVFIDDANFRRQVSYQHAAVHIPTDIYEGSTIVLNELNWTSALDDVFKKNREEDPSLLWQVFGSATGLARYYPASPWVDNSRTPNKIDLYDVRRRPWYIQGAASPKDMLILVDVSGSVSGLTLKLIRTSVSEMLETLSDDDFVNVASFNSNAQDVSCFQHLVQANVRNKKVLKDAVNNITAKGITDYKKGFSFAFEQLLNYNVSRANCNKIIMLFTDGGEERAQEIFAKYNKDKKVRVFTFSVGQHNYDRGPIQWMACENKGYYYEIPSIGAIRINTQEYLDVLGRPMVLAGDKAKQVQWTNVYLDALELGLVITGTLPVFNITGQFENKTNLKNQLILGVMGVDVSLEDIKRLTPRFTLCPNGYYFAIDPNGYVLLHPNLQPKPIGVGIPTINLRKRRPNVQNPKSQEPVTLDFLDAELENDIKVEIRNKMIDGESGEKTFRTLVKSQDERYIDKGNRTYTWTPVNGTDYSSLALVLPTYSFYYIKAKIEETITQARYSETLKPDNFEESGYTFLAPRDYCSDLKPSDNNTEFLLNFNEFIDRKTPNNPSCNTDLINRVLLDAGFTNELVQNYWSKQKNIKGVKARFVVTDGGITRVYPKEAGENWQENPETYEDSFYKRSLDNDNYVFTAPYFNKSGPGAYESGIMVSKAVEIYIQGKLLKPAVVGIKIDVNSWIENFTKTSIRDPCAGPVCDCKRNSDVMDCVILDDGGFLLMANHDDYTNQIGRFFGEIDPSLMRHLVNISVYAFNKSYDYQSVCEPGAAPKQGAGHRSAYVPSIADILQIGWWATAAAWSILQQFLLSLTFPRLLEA
T1 sequence (P13806 961-1106 partner limits assumed, other chains not shown): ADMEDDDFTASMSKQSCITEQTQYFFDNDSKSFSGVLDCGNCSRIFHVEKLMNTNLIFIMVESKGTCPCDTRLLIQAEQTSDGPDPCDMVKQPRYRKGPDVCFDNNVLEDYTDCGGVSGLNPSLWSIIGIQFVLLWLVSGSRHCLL

Row | IC50 [nM] | Compound
1 | 265 | COC(=O)C1=C(C)NC2=C(C1c1ccccc1F)S(=O)(=O)CCS(=O)(=O)C2 (centres unmarked) [Compound 16, 5H-1,4-Dithiepino[6,5-b]pyridine-8-carboxylic acid, 9-(2-fluorophenyl)-2,3,6,9-tetrahydro-7-methyl-methyl ester 1,1,4,4-tetraoxide]
2 | 53 | CC1=C(C(=O)OCCN(C)Cc2ccccc2)C(c2cccc(C(F)(F)F)c2F)C2=C(CS(=O)(=O)CCCS2(=O)=O)N1 (centres unmarked) [Compound 28, 2H,6H-1,5-Dithiocino[3,2-b]pyridine-9-carboxylic acid, 10-[2-fluoro-3-(trifluoromethyl)phenyl]-3,4,7,10-tetrahydro-8-methyl-2-[methyl(phenylmethyl)amino]ethyl ester 1,1,5,5-tetraoxide]
3 | 210 | COC(=O)C1=C(C)NC2=C(C1c1ccccc1[N+](=O)[O-])S(=O)(=O)CCS(=O)(=O)C2 (centres unmarked) [Compound 19, 5H-1,4-Dithiepino[6,5-b]pyridine-8-carboxylic acid, 2,3,6,9-tetrahydro-7-methyl-9-(2-nitrophenyl)-methyl ester 1,1,4,4-tetraoxide]
4 | 38 | C=C1CS(=O)(=O)C2=C(CS1(=O)=O)NC(C)=C(C(=O)OCCN(C)Cc1ccccc1)C2c1cccc(C(F)(F)F)c1F (centres unmarked) [Compound 21, 5H-1,4-Dithiepino[6,5-b]pyridine-8-carboxylic acid, 9-[2-fluoro-3-(trifluoromethyl)phenyl]-2,3,6,9-tetrahydro-7-methyl-3-methylene-2-[methyl(phenylmethyl)amino]ethyl ester 1,1,4,4-tetraoxide]
5 | 21 | C=C1CS(=O)(=O)C2=C(CS1(=O)=O)NC(C)=C(C(=O)OC)C2c1cccc(C(F)(F)F)c1F (centres unmarked) [Compound 20, 5H-1,4-Dithiepino[6,5-b]pyridine-8-carboxylic acid, 9-[2-fluoro-3-(trifluoromethyl)phenyl]-2,3,6,9-tetrahydro-7-methyl-3-methylene-methyl ester 1,1,4,4-tetraoxide]
6 | 20 | COC(=O)C1=C(C)NC2=C(C1c1cccc(C(F)(F)F)c1F)S(=O)(=O)CCS(=O)(=O)C2 (centres unmarked) [Compound 17, 5H-1,4-Dithiepino[6,5-b]pyridine-8-carboxylic acid, 9-[2-fluoro-3-(trifluoromethyl)phenyl]-2,3,6,9-tetrahydro-7-methyl-methyl ester 1,1,4,4-tetraoxide]
7 | 10 | CC1=C(C(=O)OCCN(C)Cc2ccccc2)C(c2cccc([N+](=O)[O-])c2)C2=C(CS(=O)(=O)CCCS2(=O)=O)N1 (centres unmarked) [Compound 25, 2H,6H-1,5-Dithiocino[3,2-b]pyridine-9-carboxylic acid, 3,4,7,10-tetrahydro-8-methyl-10-(3-nitrophenyl)-2-[methyl(phenylmethyl)amino]ethyl ester 1,1,5,5-tetraoxide]
8 | 13 | CC1=C(C(=O)OCCN(C)Cc2ccccc2)C(c2cc(F)c(F)c(F)c2)C2=C(CS(=O)(=O)CCS2(=O)=O)N1 (centres unmarked) [Compound 9, 5H-1,4-Dithiepino[6,5-b]pyridine-8-carboxylic acid, 2,3,6,9-tetrahydro-7-methyl-9-(3,4,5-trifluorophenyl)-2-[methyl(phenylmethyl)amino]ethyl ester 1,1,4,4-tetraoxide]
9 | 27 | COC(=O)C1=C(C)NC2=C(C1c1c(F)c(F)c(F)c(F)c1F)S(=O)(=O)CCS(=O)(=O)C2 (centres unmarked) [Compound 13, 5H-1,4-Dithiepino[6,5-b]pyridine-8-carboxylic acid, 2,3,6,9-tetrahydro-7-methyl-9-(pentafluorophenyl)-methyl ester 1,1,4,4-tetraoxide]
10 | 68 | COC(=O)C1=C(C)NC2=C(C1c1cccc(F)c1F)S(=O)(=O)CCS(=O)(=O)C2 (centres unmarked) [Compound 18, 5H-1,4-Dithiepino[6,5-b]pyridine-8-carboxylic acid, 9-(2,3-difluorophenyl)-2,3,6,9-tetrahydro-7-methyl-methyl ester 1,1,4,4-tetraoxide]

Same assay, conditions: 3H-nitrendipine displacement, rabbit heart membranes; Tables 6-7

Row | Compound | IC50 [nM]
11 | CC1=C(C(=O)OCCCO)C(c2c(F)cccc2Cl)C2=C(CS(=O)(=O)CCS2(=O)=O)N1 (centres unmarked) [Compound 83] | 1210
12 | CC1=C(C(=O)OCC(=O)Oc2ccccc2)C(c2c(F)cccc2Cl)C2=C(CS(=O)(=O)CCS2(=O)=O)N1 (centres unmarked) [Compound 67] | 336
13 | CC1=C(C(=O)OCC(=O)OCc2ccccc2)C(c2c(F)cccc2Cl)C2=C(CS(=O)(=O)CCS2(=O)=O)N1 (centres unmarked) [Compound 66] | 279
14 | CC1=C(C(=O)OCc2oc(=O)oc2C)C(c2c(F)cccc2Cl)C2=C(CS(=O)(=O)CCS2(=O)=O)N1 (centres unmarked) [Compound 73] | 417
15 | CC1=C(C(=O)OCCC2CCOC2=O)C(c2cccc(Cl)c2Cl)C2=C(CS(=O)(=O)CCS2(=O)=O)N1 (centres unmarked) [Compound 63] | 194

More lines, now with the values ahead:

Row | IC50 [nM] | Compound
16 | 316000 | CC1=C(C(=O)OCC(=O)O)C(c2c(F)cccc2Cl)C2=C(CS(=O)(=O)CCS2(=O)=O)N1 (centres unmarked) [Compound 98, 7-methyl-9-[2-fluoro-6-chlorophenyl]-2,3,6,9-tetrahydro-1,1,4,4-tetraoxide 5H-1,4-Dithiepino[6,5-b]pyridine-8-carboxylic acid carboxymethyl ester]
17 | 356 | CC1=C(C(=O)OCC(=O)OC(C)(C)C)C(c2c(F)cccc2Cl)C2=C(CS(=O)(=O)CCS2(=O)=O)N1 (centres unmarked) [Compound 69, 7-methyl-9-[2-fluoro-6-chlorophenyl]-2,3,6,9-tetrahydro-1,1,4,4-tetraoxide 5H-1,4-Dithiepino[6,5-b]pyridine-8-carboxylic acid 2-(1,1-dimethylethyloxy)-2-oxoethyl ester]
18 | 35 | CC1=C(C(=O)OCCOC(=O)CC(C)C)C(c2c(F)cccc2Cl)C2=C(CS(=O)(=O)CCS2(=O)=O)N1 (centres unmarked) [Compound 38]
19 | 15 | CC1=C(C(=O)OCCOC(=O)C(C)C)C(c2cccc(Cl)c2Cl)C2=C(CS(=O)(=O)CCS2(=O)=O)N1 (centres unmarked) [Compound 34, 5H-[1,4]dithiepino[6,5-b]pyridine-8-carboxylic acid, 9-(2,3-dichlorophenyl)-2,3,6,9-tetrahydro-7-methyl-, 2-(2-methyl-1-oxopropoxy)ethyl ester, 1,1,4,4-tetraoxide]
20 | 3700 | CC1=C(C(=O)OCCOC(=O)C(C)(C)C)C(c2c(F)cccc2Cl)C2=C(CS(=O)(=O)CCS2(=O)=O)N1 (centres unmarked) [Compound 89]
21 | 20 | CC1=C(C(=O)OCCOC(=O)CCC(C)C)C(c2c(F)cccc2Cl)C2=C(CS(=O)(=O)CCS2(=O)=O)N1 (centres unmarked) [Compound 36]
22 | 50 | CC1=C(C(=O)OCCOC(=O)c2ccc3ccccc3c2)C(c2c(F)cccc2Cl)C2=C(CS(=O)(=O)CCS2(=O)=O)N1 (centres unmarked) [Compound 46]
23 | 1000 | CC1=C(C(=O)OCCO)C(c2c(F)cccc2Cl)C2=C(CS(=O)(=O)CCS2(=O)=O)N1 (centres unmarked) [Compound 82]
24 | 760 | CC1=C(C(=O)OCCOC(=O)c2ccncc2)C(c2c(F)cccc2Cl)C2=C(CS(=O)(=O)CCS2(=O)=O)N1 (centres unmarked) [Compound 78]
25 | 44 | CC1=C(C(=O)OCCOC(=O)C2CCc3ccccc3C2)C(c2c(F)cccc2Cl)C2=C(CS(=O)(=O)CCS2(=O)=O)N1 (centres unmarked) [Compound 42, 7-methyl-9-[2-fluoro-6-chlorophenyl]-2,3,6 9-tetrahydo-1,1,4,4-tetraoxide 5H-1,4-Dithiepino[6,5-b]pyridine-8-carboxlic acid 2-[1,2,3,4-tetrahydo-2-napthoyl]oxyethyl ester]
26 | 1690 | CC1=C(C(=O)OCCC2CCOC2=O)C(c2c(F)cccc2Cl)C2=C(CS(=O)(=O)CCS2(=O)=O)N1 (centres unmarked) [Compound 85]
27 | 100 | CC1=C(C(=O)OCCOC(=O)C2CCCCC2)C(c2c(F)cccc2Cl)C2=C(CS(=O)(=O)CCS2(=O)=O)N1 (centres unmarked) [Compound 55]
28 | 768 | CC1=C(C(=O)OCCNC(=O)OC(C)(C)C)C(c2c(F)cccc2Cl)C2=C(CS(=O)(=O)CCS2(=O)=O)N1 (centres unmarked) [Compound 79, 5H-[1,4]dithiepino[6,5-b]pyridine-8-carboxylic acid, 9-(2-chloro-6-fluorophenyl)-2,3,6,9-tetrahydro-7-methyl-, 2-[[(1,1-dimethylethoxy)carbonyl]amino]ethyl ester, 1,1,4,4-tetraoxide]
29 | 43 | CC1=C(C(=O)OCCCOC(=O)c2ccccc2)C(c2c(F)cccc2Cl)C2=C(CS(=O)(=O)CCS2(=O)=O)N1 (centres unmarked) [Compound 41, 7-methyl-9-[2-fluoro-6-chlorophenyl]-2,3,6,9-tetrahydro-1,1,4,4-tetraoxide 5H-1,4-Dithiepino[6,5-b]pyridine-8-carboxylic acid 3-benzoyloxypropyl ester]
30 | 1230 | CC1=C(C(=O)OCCOC(=O)CN(C)C)C(c2c(F)cccc2Cl)C2=C(CS(=O)(=O)CCS2(=O)=O)N1 (centres unmarked) [Compound 84]
31 | 898 | CC(=O)OCCOC(=O)C1=C(C)NC2=C(C1c1c(F)cccc1Cl)S(=O)(=O)CCS(=O)(=O)C2 (centres unmarked) [Compound 80]
32 | 220 | CC1=C(C(=O)OCCOC(=O)C(C)C)C(c2c(F)cccc2Cl)C2=C(CS(=O)(=O)CCS2(=O)=O)N1 (centres unmarked) [Compound 64]
33 | 176 | CC1=C(C(=O)OCCCOC(=O)C(C)C)C(c2c(F)cccc2Cl)C2=C(CS(=O)(=O)CCS2(=O)=O)N1 (centres unmarked) [Compound 62]
34 | 150000 | CC1=C(C(=O)OCCOC(=O)CN)C(c2c(F)cccc2Cl)C2=C(CS(=O)(=O)CCS2(=O)=O)N1 (centres unmarked) [Compound 97]
35 | 946 | CC1=C(C(=O)OCCOC(=O)CNC(=O)OC(C)(C)C)C(c2c(F)cccc2Cl)C2=C(CS(=O)(=O)CCS2(=O)=O)N1 (centres unmarked) [Compound 81]

From patent US20020026051A1, “Dithiepino [6,5-b]pyridines, and related compositions and methods” (priority 1999, published 2002)
